Test results: PubChem BioAssay (NCI)
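Five concentrations, 48 hours, 96-well plates. TGI is the concentration that stops growth completely.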

Tests used:
Assay in all cases: inhibition of tumour cell growth, NCI panel, 48 h
MDA-MB-231 breast = test system: MDA-MB-231 breast
A498 renal = test system: A498 renal
NCI-H23 lung = test system: NCI-H23 lung
IGROV1 ovarian = test system: IGROV1 ovarian
TK-10 renal = test system: TK-10 renal
OVCAR-3 ovarian = test system: OVCAR-3 ovarian
DU-145 prostate = test system: DU-145 prostate
SK-OV-3 ovarian = test system: SK-OV-3 ovarian
HOP-62 NSCLC = test system: HOP-62 NSCLC
HCC-2998 colon = test system: HCC-2998 colon
SNB-75 CNS = test system: SNB-75 CNS
SK-MEL-28 melanoma = test system: SK-MEL-28 melanoma
KM12 colon = test system: KM12 colon
PC-3 prostate = test system: PC-3 prostate
CCRF-CEM leukemia = test system: CCRF-CEM leukemia
SNB-19 CNS = test system: SNB-19 CNS
RPMI-8226 leukemia = test system: RPMI-8226 leukemia
T-47D breast = test system: T-47D breast

Structure (SMILES)	TGI (MDA-MB-231 breast) [µM]	TGI (A498 renal) [µM]	TGI (NCI-H23 lung) [µM]	TGI (IGROV1 ovarian) [µM]	TGI (TK-10 renal) [µM]	TGI (OVCAR-3 ovarian) [µM]	TGI (DU-145 prostate) [µM]	TGI (SK-OV-3 ovarian) [µM]	TGI (HOP-62 NSCLC) [µM]	TGI (HCC-2998 colon) [µM]	TGI (SNB-75 CNS) [µM]	TGI (SK-MEL-28 melanoma) [µM]	TGI (KM12 colon) [µM]	TGI (PC-3 prostate) [µM]	TGI (CCRF-CEM leukemia) [µM]	TGI (SNB-19 CNS) [µM]	TGI (RPMI-8226 leukemia) [µM]	TGI (T-47D breast) [µM]
C=C(Cl)C(Br)(CCl)CCC(Cl)C(C)C (stereo not given) (tested in a mixture with another compound)	2.49	31.6	3.79	3.73	4.05	5.15	3.25	8.85	4.76	10.7	2.35	3.21	3.55	10.6	> 100	10.7		
CCOP(=O)(C/C(=N/NC(C)(C)C)C(=O)Nc1nc2ccc(C)cc2s1)OCC		> 100	> 100	> 100	> 100	> 100		> 100	> 100	> 100	> 100	> 100	> 100		> 100	> 100		
CCC(=O)NCC1(c2c[nH]c3ccccc23)SCCS1		> 100	> 100	> 100	> 100	> 100		> 100	> 100	> 100	> 100	> 100	> 100		> 100	> 100	> 100	
O=c1[nH]nc2c3n[nH]c(=O)n3c3ccccc3n12		> 100	> 100	> 100	> 100	> 100		> 100	> 100	> 100	> 100	> 100	> 100		> 100	> 100	> 100	
CCOC(=O)NC(=O)c1cn(-c2ccc(CCOC(=O)CCCCCCCCC(=O)OCCc3ccc(-n4cc(C(=O)NC(=O)OCC)c(=O)[nH]c4=O)cc3)cc2)c(=O)[nH]c1=O			> 100	> 100	> 100	> 100		> 100	> 100	> 100		> 100	> 100		> 100	> 100	> 100	
COc1cccc(NC(=O)c2c(SC)n[nH]c2N)c1	> 100	> 100		> 100	> 100			> 100	> 100	> 100	> 100	> 100	> 100	> 100	> 100	> 100	> 100	
Nc1nonc1-c1noc(-c2nonc2N)[n+]1[O-]	> 100	> 100	> 100	> 100	> 100		> 100	> 100	> 100	> 100		> 100	> 100	> 100	32.8	> 100	> 100	
COC(=O)C(=O)C(C(=O)C(=O)Nc1ccc([N+](=O)[O-])cc1C#N)c1nc2ccc([N+](=O)[O-])cc2[nH]c1=O (stereo not given)		> 100			> 100	> 100		> 100	> 100		> 100		> 100		> 100	> 100	> 100	
Clc1ccc(OCc2nnc(CCCCCCCCc3nnc(COc4ccc(Cl)cc4)o3)o2)cc1	> 100	> 100	> 100		> 100	> 100	> 100	> 100		> 100	> 100	> 100	> 100	> 100		> 100	> 100	
O=c1[nH]ncc2[nH]c3c(c12)CCCc1ccccc1-3		66.3	> 100	> 100	> 100	> 100	> 100	> 100	> 100	61.4			> 100	> 100	> 100	> 100	84.9	> 100
COc1cc2c(cc1OC)[C@]1(O)C(=O)c3ccc4c(c3O[C@@H]1CO2)C[C@H](C(C)(C)O)O4		> 100	> 100	> 100	> 100	> 100		> 100	> 100	> 100	> 100	> 100	> 100		> 100	> 100	> 100	
Cc1ccc(-c2n[nH]c(CC#N)n2)cc1		> 100	> 100	> 100	> 100	> 100	> 100	> 100	> 100	> 100	> 100	> 100	> 100	> 100	> 100	> 100		> 100
CCCCCCCCCCCCCC/C(=C/OCC[N+](C)(C)C)OC(C)=O (tested in a mixture with another compound)	4.83	6.99	7.65	3.96	3.76	8.21	17.1	17.1	5.8	13.4	7.3	20.4		5.27	3.67	3.35	4.16	
CC(=O)C1CC2(c3ccccc3)C(=O)c3ccccc3N2O1 (stereo not given)		> 100	> 100	> 100				> 100	> 100	> 100	> 100	> 100			> 100	> 100	> 100	
O=C1c2ccccc2N2OC3C4CCC(C4)C3C12c1ccccc1 (stereo not given)		> 100	> 100	> 100				> 100	> 100	> 100	> 100	> 100			> 100	> 100	> 100	
CN1C(=O)c2cccc3c([N+](=O)[O-])ccc(c23)C1=O		5.64	24.7	9.43	15.6	11.4		27.9	24.7	17.4	25.1	32.9	18.3		39.5	28		
CCOC(=O)c1c(SCC#N)n(-c2ccccc2)c(=S)n(-c2ccccc2)c1=O			> 100	> 100	> 100	> 100	> 100	> 100	> 100		90.3	> 100	> 100	> 100	> 100	> 100	> 100	> 100
COc1ccccc1OCc1nnc(SCC(=O)O)n1-c1ccccc1		> 100	> 100	> 100	> 100	> 100		> 100	> 100	> 100	> 100	> 100	> 100		> 100		> 100	
c1ccc(N=C2SC(c3ccccc3)CN2C23CC4CC(CC(C4)C2)C3)cc1 (stereo not given)	> 100	> 100	> 100	> 100	> 100	> 100	> 100		> 100	> 100	> 100	> 100	> 100	> 100	> 100	> 100	> 100	
CN(C)CC1CCC(CN(C)C)C1=NO (stereo not given)				> 100	> 100	> 100			> 100	> 100	> 10	> 100			> 100		> 100	
N[C@H]1CCc2c1nc1c(c2-c2ccccc2)CC[C@@H]1N	66		61.6	31.4	> 100		> 100		> 100	49.2	29.5		> 100	29.5	40.7	> 100	> 100	
COc1cc([C@@H]2c3cc4c(cc3[C@@H](NC(=O)c3ccc(C(C)=O)cc3)C3COC(=O)[C@@H]32)OCO4)cc(OC)c1O (stereo not given in full)		5.87	1.41	5.71	21.8	7.61		9.46	1.35	7.91	4.99	33.6	5.68		> 100	> 100	14.5	
O=c1cc2oc3ccc4ccccc4c3cc-2c(=O)[nH]1		31.8	4.78	27.4		24.4	27.6	34.5	25.2	31.8		32.7	42.7	22.4	2.6	27.2	> 100	
C/C(CC(=O)Nc1ccc(C)cc1)=N\NC(N)=S		> 100	> 100	> 100	> 100	> 100		> 100	> 100	> 100	> 100	> 100	> 100		> 100		> 100	
